According to PMC10600239, “Selective MCL-1 inhibitor ABBV-467 is efficacious in tumor models but is associated with cardiac troponin increases in patients” (Communications Medicine, 2023):
Where two headings read alike, the source gives them in different places.

What was measured:
Assay in all cases: Off-target profiling (Supplementary Data 1)
[1] = biological target: off-target receptors, ion channels, and transporters (Homo sapiens, UniProt O15530); settings: TR-FRET Kinome; Invitrogen A-1167389.7 .015(Subs Conc)
[2] = biological target: off-target receptors, ion channels, and transporters (Homo sapiens, UniProt Q06418); settings: TR-FRET Kinome; Invitrogen A-1169612.6 .05(Subs Conc)
Sequence of off-target receptors, ion channels, and transporters (Homo sapiens, UniProt Q06418) (Q06418 41-890): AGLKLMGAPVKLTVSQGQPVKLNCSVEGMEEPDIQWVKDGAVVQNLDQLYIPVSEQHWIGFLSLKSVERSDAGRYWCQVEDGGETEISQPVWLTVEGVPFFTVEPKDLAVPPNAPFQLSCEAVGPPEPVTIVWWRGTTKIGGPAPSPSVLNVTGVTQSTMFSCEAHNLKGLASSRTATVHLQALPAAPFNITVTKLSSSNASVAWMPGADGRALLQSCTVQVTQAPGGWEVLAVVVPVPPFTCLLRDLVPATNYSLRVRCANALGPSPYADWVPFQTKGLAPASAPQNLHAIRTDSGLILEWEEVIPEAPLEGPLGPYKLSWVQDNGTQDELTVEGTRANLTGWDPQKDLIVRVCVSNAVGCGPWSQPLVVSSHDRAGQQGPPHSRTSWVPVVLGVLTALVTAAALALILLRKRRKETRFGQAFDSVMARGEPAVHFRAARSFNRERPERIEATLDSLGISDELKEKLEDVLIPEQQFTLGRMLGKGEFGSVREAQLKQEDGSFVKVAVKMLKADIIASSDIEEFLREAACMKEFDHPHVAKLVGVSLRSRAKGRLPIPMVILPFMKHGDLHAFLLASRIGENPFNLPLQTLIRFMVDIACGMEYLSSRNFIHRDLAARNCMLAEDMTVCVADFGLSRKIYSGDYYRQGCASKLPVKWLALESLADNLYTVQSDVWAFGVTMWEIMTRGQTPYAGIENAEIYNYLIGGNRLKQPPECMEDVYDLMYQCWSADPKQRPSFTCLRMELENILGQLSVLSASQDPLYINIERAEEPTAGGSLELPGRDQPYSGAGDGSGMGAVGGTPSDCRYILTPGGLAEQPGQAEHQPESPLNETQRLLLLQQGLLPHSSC

[3] = biological target: off-target receptors, ion channels, and transporters (Homo sapiens, UniProt P29376); settings: TR-FRET Kinome; Invitrogen A-1224615.7 .0125(Subs Conc)
[4] = biological target: off-target receptors, ion channels, and transporters (Homo sapiens, UniProt O43353); settings: TR-FRET Kinome; Millipore A-1499319.7 .1(Subs Conc)
[5] = biological target: off-target receptors, ion channels, and transporters (Homo sapiens, UniProt Q13627); settings: TR-FRET Kinome; Invitrogen A-1180691.2 .0125(Subs Conc)
[6] = biological target: off-target receptors, ion channels, and transporters (Homo sapiens, UniProt Q9UHD2); settings: TR-FRET Kinome; Invitrogen A-1167389.7 .00625(Subs Conc)
[7] = biological target: off-target receptors, ion channels, and transporters (Homo sapiens, UniProt Q08881); settings: TR-FRET Kinome; Invitrogen A-1224615.7 .025(Subs Conc)
[8] = biological target: off-target receptors, ion channels, and transporters (Homo sapiens, UniProt Q9UQM7); settings: TR-FRET Kinome; Invitrogen A-1169612.6 .003(Subs Conc)
[9] = biological target: off-target receptors, ion channels, and transporters; settings: for EC50: Bioprofiling 6pt Ag
[10] = biological target: off-target receptors, ion channels, and transporters (Homo sapiens, UniProt Q96GD4); settings: TR-FRET Kinome; Invitrogen A-1202211.2 .05(Subs Conc)
Sequence of off-target receptors, ion channels, and transporters (Homo sapiens, UniProt Q96GD4) (Q96GD4 whole entry): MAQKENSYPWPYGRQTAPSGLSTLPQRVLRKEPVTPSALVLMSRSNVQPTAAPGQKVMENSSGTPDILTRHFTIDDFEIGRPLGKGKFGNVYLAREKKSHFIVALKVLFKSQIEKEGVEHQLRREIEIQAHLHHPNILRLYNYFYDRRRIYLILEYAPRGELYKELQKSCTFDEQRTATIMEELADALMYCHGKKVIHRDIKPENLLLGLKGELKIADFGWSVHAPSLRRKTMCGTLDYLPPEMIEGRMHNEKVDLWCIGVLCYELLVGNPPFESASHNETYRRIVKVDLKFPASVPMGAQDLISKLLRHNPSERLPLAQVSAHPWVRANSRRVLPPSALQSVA

[11] = biological target: off-target receptors, ion channels, and transporters (Homo sapiens, UniProt P34947); settings: TR-FRET Kinome; Invitrogen A-1180691.2 .1(Subs Conc)
[12] = biological target: off-target receptors, ion channels, and transporters (Homo sapiens, UniProt P49760); settings: TR-FRET Kinome; Invitrogen A-1180691.2 .05(Subs Conc)
[13] = biological target: off-target receptors, ion channels, and transporters (Homo sapiens, UniProt Q14164); settings: TR-FRET Kinome; Invitrogen A-1167389.7 .003(Subs Conc)
[14] = biological target: off-target receptors, ion channels, and transporters (Homo sapiens, UniProt P07949); settings: TR-FRET Kinome; Invitrogen A-1180691.2 .1(Subs Conc)
Sequence of off-target receptors, ion channels, and transporters (Homo sapiens, UniProt P07949) (P07949 29-1114): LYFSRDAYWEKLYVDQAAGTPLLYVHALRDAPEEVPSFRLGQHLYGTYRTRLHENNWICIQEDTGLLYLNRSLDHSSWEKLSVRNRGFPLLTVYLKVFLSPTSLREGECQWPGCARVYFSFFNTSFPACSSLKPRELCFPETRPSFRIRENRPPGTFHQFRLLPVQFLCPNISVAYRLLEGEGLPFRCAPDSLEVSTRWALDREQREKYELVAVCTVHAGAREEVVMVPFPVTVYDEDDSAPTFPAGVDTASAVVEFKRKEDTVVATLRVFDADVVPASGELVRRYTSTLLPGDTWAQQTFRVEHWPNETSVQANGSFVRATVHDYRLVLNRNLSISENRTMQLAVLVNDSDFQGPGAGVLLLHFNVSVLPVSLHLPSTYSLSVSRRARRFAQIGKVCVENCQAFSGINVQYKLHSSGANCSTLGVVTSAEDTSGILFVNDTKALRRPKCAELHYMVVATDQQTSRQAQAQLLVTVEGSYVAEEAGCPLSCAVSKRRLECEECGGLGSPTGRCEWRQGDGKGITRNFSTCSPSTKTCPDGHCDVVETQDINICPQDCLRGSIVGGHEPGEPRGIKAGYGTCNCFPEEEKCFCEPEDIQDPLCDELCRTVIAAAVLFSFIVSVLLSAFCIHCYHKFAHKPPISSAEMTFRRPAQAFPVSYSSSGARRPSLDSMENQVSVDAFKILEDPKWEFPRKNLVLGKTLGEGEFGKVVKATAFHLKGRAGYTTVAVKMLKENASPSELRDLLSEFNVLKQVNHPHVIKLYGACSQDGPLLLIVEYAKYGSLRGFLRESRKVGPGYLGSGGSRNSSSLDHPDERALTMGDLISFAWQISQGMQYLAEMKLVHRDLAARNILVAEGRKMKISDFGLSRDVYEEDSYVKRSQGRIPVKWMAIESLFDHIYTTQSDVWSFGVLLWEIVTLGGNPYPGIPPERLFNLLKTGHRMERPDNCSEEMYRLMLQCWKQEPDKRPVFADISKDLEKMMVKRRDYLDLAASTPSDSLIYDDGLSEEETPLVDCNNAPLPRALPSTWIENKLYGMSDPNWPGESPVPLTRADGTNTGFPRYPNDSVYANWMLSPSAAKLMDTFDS

[15] = biological target: off-target receptors, ion channels, and transporters (Homo sapiens, UniProt P30542)
Sequence of off-target receptors, ion channels, and transporters (Homo sapiens, UniProt P30542) (P30542 whole entry): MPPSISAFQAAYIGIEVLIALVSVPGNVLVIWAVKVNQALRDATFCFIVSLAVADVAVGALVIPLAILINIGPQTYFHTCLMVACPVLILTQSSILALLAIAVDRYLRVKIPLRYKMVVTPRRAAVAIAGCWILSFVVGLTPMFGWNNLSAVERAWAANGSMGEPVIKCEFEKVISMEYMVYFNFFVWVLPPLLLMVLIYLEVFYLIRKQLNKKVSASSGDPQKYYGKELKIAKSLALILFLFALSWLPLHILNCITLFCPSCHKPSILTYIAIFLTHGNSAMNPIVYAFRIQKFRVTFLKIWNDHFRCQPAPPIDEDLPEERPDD

[16] = biological target: off-target receptors, ion channels, and transporters (Homo sapiens, UniProt Q9H4B4); settings: TR-FRET Kinome; Invitrogen A-1224615.7 .2(Subs Conc)
[17] = biological target: off-target receptors, ion channels, and transporters (Homo sapiens, UniProt P08069); settings: TR-FRET Kinome; Invitrogen A-1198909.2 .2(Subs Conc)
[18] = biological target: off-target receptors, ion channels, and transporters (Homo sapiens, UniProt P17948); settings: TR-FRET Kinome; Invitrogen A-1167389.7 .0125(Subs Conc)
Sequence of off-target receptors, ion channels, and transporters (Homo sapiens, UniProt P17948) (P17948 27-1338): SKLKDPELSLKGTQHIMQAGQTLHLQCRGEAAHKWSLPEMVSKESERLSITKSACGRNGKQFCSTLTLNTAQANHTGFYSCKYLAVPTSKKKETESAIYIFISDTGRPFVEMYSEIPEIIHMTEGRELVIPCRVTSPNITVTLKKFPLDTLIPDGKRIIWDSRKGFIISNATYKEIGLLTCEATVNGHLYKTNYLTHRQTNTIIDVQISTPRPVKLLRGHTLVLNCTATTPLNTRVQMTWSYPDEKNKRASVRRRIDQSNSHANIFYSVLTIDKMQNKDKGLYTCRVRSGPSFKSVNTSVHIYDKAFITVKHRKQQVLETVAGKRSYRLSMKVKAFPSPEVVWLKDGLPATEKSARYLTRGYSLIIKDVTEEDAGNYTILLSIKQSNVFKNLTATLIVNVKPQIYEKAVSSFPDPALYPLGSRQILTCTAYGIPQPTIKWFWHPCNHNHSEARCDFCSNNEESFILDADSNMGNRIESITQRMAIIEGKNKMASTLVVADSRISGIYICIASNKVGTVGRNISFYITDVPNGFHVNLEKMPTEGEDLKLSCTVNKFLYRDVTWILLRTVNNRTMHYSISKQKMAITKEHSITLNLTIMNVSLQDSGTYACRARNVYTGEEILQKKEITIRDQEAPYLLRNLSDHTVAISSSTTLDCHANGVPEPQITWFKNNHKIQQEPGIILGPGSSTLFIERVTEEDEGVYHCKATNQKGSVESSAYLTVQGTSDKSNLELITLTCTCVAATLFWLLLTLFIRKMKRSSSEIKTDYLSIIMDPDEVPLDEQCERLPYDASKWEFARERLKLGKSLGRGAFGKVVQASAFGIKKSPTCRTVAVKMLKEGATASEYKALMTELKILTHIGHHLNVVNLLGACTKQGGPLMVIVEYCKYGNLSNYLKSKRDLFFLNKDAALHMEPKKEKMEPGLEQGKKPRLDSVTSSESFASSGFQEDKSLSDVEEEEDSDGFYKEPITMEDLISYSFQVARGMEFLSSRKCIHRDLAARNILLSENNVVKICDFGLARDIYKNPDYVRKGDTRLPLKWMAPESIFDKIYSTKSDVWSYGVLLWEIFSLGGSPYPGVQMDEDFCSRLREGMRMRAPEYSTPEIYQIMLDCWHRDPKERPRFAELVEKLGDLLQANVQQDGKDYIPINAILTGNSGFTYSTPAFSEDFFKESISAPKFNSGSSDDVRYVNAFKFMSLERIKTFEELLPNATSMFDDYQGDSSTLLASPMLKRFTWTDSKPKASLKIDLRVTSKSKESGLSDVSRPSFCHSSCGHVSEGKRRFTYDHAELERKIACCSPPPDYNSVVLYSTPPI

[19] = biological target: off-target receptors, ion channels, and transporters (Homo sapiens, UniProt P41240); settings: TR-FRET Kinome; SignalChem A-1196581.2 .002(Subs Conc)
[20] = biological target: off-target receptors, ion channels, and transporters (Homo sapiens, UniProt Q8IU85); settings: TR-FRET Kinome; Invitrogen A-1167389.7 .025(Subs Conc)
[21] = biological target: off-target receptors, ion channels, and transporters (Homo sapiens, UniProt P08172)
Sequence of off-target receptors, ion channels, and transporters (Homo sapiens, UniProt P08172) (P08172 whole entry): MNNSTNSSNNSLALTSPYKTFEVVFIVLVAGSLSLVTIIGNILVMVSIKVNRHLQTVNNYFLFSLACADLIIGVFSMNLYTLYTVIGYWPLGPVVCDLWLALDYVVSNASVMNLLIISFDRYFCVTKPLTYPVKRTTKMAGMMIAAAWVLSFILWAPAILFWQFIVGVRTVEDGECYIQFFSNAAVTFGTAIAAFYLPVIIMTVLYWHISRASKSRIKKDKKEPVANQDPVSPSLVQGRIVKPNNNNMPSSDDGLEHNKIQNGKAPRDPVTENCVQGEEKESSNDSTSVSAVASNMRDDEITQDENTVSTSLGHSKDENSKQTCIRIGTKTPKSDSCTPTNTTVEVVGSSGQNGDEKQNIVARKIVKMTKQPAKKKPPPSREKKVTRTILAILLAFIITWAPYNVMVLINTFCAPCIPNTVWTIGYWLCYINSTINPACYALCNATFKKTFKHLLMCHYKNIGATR

[22] = biological target: off-target receptors, ion channels, and transporters (Homo sapiens, UniProt Q9UL54); settings: TR-FRET Kinome; Invitrogen A-1169612.6 .2(Subs Conc)
[23] = biological target: off-target receptors, ion channels, and transporters (Homo sapiens, UniProt P35348)
Sequence of off-target receptors, ion channels, and transporters (Homo sapiens, UniProt P35348) (P35348 whole entry): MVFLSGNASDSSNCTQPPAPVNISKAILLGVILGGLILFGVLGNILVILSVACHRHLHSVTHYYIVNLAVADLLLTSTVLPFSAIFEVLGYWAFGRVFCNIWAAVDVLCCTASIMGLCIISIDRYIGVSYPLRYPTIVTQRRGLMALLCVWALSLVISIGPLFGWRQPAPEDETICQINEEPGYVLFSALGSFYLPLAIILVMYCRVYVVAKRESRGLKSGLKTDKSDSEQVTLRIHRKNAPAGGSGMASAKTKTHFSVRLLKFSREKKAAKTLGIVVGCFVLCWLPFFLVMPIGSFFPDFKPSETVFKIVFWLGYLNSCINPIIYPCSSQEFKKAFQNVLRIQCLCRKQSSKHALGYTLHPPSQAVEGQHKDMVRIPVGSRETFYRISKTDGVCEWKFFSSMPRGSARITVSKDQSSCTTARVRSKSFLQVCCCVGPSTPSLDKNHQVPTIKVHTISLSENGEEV

[24] = biological target: off-target receptors, ion channels, and transporters (Homo sapiens, UniProt Q04771); settings: TR-FRET Kinome; Invitrogen A-1180691.2 .05(Subs Conc)
[25] = biological target: off-target receptors, ion channels, and transporters (Homo sapiens, UniProt P48729); settings: TR-FRET Kinome; Invitrogen A-1180691.2 .05(Subs Conc)

Cc1c(Cl)c2c(Cl)c(C)c1-c1c(-c3ccc(F)cc3)sc3ncnc(c13)O[C@@H](C(=O)O)Cc1cc(ccc1OCc1ccnc(-c3ccc(OC[C@H]4COCCO4)cc3)n1)OC[C@@H](CN1CCN(C)CC1)O2 [ABBV-467]
> 10 µM: PDK1 - IC50 [1] | TYRO3 - IC50 [2] | LTK - IC50 [3] | RIPK2 - IC50 [4] | Dyrk1A - IC50 [5] | TBK1 - IC50 [6] | ITK - IC50 [7] | CAMK2A - IC50 [8] | EC50 ([9]; read-out: CHO Hamster - EC50) | EC50 ([9]; read-out: Cav1.2 (L-type) ND7/23 Mouse/Rat - EC50) | IC50 ([9]; read-out: Cav1.2 (L-type) ND7/23 Mouse/Rat - IC50, Bioprofiling 6pt Antag, KCl) | Aurora1 - IC50 [10] | GRK5 - IC50 [11] | CLK2 - IC50 [12] | IKKE - IC50 [13] | RET - IC50 [14] | A1 CHO Human - EC50 ([15]; Bioprofiling 6pt Ag) | A1 CHO Human - IC50 ([15]; Bioprofiling 6pt Antag, N6-Cyclopentyladenosine (CPA)) | Plk3 - IC50 [16] | IGF1R - IC50 [17] | Flt1 - IC50 [18] | CSK - IC50 [19] | CAMK1D - IC50 [20] | M2 CHO Human - EC50 ([21]; Bioprofiling 6pt Ag) | M2 CHO Human - IC50 ([21]; Bioprofiling 6pt Antag, Carbachol) | TAOK2 - IC50 [22] | EC50 ([23]; read-out: Alpha1A CHO Human - EC50, Bioprofiling 6pt Ag) | IC50 ([23]; read-out: Alpha1A CHO Human - IC50, Bioprofiling 6pt Antag, A-61603) | ACVR1 - IC50 [24] | Ck1alpha1 - IC50 [25]
